{"source": "patent US7867979B2", "about": "“Drug composition for treating 2 type diabetes and diabetic chronicity complications” (Hainan Deze Drug Research Co., Ltd., priority 2006, dated 2011)", "key": {"[1]": {"system": "Superoxidedismutase (SOD)", "assay": "Superoxidedismutase (SOD) in kidney tissue homogenate of GK rats", "assay_type": "in vivo, Goto-Kakizaki rats (GK)", "details": "oral daily 12 weeks", "protocol": "GK rats control group (n=10); mangiferin groups (10, 30, 200 mg/kg, each group 10 rats); berberine groups (10, 20, 150 mg/kg, each group 10 rats); composition group 1[[mangiferin (10 mg/kg)+berberine (10 mg/kg)], 10 rats]; composition group 2[[mangiferin (200 mg/kg)+berberine (150 mg/kg)], 10 rats]. Wistar rats are normal control group (10 rats). GK rats control group and Wistar rats group were given saline. The other groups were given test drugs. Test samples were administrated orally at the same time every day for 12 weeks. 3.3.1 Preparation of tissue homogenate: Rats were killed by femoral artery bloodletting after administration of the rats for 12-weeks. Kidney tissue of the rats were taken, the blood of kidney tissue were washed with cooling saline (4° C.), then the remnant water was absorbed with filter paper, the kidney tissue was weighed. Per gram kidney tissue was added into 10 ml saline, which was put in homogenized machine (10,000 r/min, 10 seconds, 3rd), 10% tissue homogenate was prepared, the tissue homogenate was centrifuged (4000 r/min) for 10 minutes to get supernatant, the supernatant was saved in −20° C. for determination. […] SOD is determined by Xanthine Oxidase calorimetric analysis, the test box was bought from Nanjing Jiancheng Bioengineering Research Institute. […] The results have been calculated as mean±SD ( x±SD) and the comparisons of the data have been done by t-test. There are ten rats in every group. GK rats control group and wistar rats group were given saline. The other groups were given test drugs. Test samples were administrated orally at the same time every day for 12 weeks. The measurements are as same as the above experiment."}, "rat": {"system": "rat", "details": "intraperitoneal injection once; cited from earlier work"}, "[2]": {"details": "cited from earlier work"}, "diabetic GK rats": {"system": "diabetic GK rats", "assay": "Blood glucose and lipid in GK rats", "assay_type": "in vivo, Goto-Kakizaki rats (GK)", "details": "oral daily 12 weeks; for GLU / Lipid TC / Lipid TG: GK rats, high fat diet", "excerpt": "The GK (Goto-Kakizaki) rat is the spontaneous model of diabetes, the pathogenesis of GK rat is very similar to the pathogenesis of type 2 diabetes. After diabetes attack, hyperglycemia and insulin secretion weakened emerge rapidly, the latter diseases may be complicated by retinopathy, micro-vascular disease, neuropathy, nephropathy in GK rat. The GK rats have been widely used in type 2 diabetes study, so we choose GK rat as the animal model of the following experiment. […] Then they can be mixed or diluted in accordance with the dose and the ratio. 1.3 Goto-Kakizaki rats (GK) (4 months age, ♀♂) and Wistar rats (SPF level, ♀♂) were purchased from Shanghai SLAC laboratory animal Co., Ltd. In addition to the normal rats, the other rats were fed with high fat diet (20% protein and 3.5% cholesterol). After the rats was feeding adaptation for one week, The GK rats which the blood glucose level was more than 11.1 mmol/L were selected, and then divided into the following groups random: GK rats control group (n=10); mangiferin groups (10, 30, 200 mg/kg, each group 10 rats); berberine groups (10, 20, 150 mg/kg, each group 10 rats); composition group 1[[mangiferin (10 mg/kg)+berberine (10 mg/kg)], 10 rats]; composition group 2[[mangiferin (200 mg/kg)+berberine (150 mg/kg)], 10 rats]. Wistar rats are normal control group (10 rats). GK rats control group and Wistar rats group were given saline. The other groups were given test drugs. Test samples were administrated orally at the same time every day for 12 weeks. 3.1 Blood Glucose and lipid: The blood specimens were taken at the end of the test. Plasma glucose (GLU), triglycerides (TG), total cholesterol (TC) were determined by HITACHI7080 automatic biochemistry analyzer. […] The results have been calculated as mean±SD ( x±SD) and the comparisons of the data have been done by t-test. […] Mangiferin and berberine are prepared in accordance with the method of preparation of example 1 and 2. Then they can be mixed in accordance with the dose and the ratio such as table 3. 1.2 Animal: Goto-Kakizaki rats (GK) (4 months age, ♀♂) and Wistar rats (SPF level, ♀♂) were purchased from Shanghai SLAC laboratory animal Co., Ltd. In addition to the normal rats, the other rats were fed with high fat diet (20% protein and 3.5% cholesterol). After the rats was feeding adaptation for one week, GK rats that the blood glucose level of the GK rats was more than 11.1 mmol/L were selected, and then random divided into the following groups as follows (Table 3): There are ten rats in every group. GK rats control group and wistar rats group were given saline. The other groups were given test drugs. Test samples were administrated orally at the same time every day for 12 weeks. The measurements are as same as the above experiment."}, "[3]": {"details": "2.0 g once orally; cited from earlier work"}, "[4]": {"details": "in vivo; cited from earlier work"}, "[5]": {"details": "30 mg/kg mangiferin, 20 mg/kg berberine"}}}
{"smiles": "O=c1c2cc(O)c(O)cc2oc2cc(O)c([C@@H]3O[C@H](CO)[C@@H](O)[C@H](O)[C@H]3O)c(O)c12", "note": "[Mangiferin]", "values": [{"measurement": "Measurements about oxidation SOD", "setting": "[1]; 10 mg/kg", "result": "130.74 ± 23.47", "unit": "U/mg pro"}, {"measurement": "Measurements about oxidation SOD", "setting": "[1]; 30 mg/kg", "result": "168.23 ± 13.46", "unit": "U/mg pro"}, {"measurement": "Measurements about oxidation SOD", "setting": "[1]; 200 mg/kg", "result": "194.15 ± 13.55", "unit": "U/mg pro"}, {"measurement": "LD50", "setting": "rat", "result": 365, "unit": "mg/kg"}, {"measurement": "Solubility in water", "setting": "[2]", "result": "cannot dissolve in water"}, {"measurement": "Improvement of GLU, TC, TG, AR, MDA, SOD in diabetic GK rats", "setting": "diabetic GK rats; 10 mg/kg", "result": "do not significantly improve"}, {"measurement": "Improvement of GLU, TC, TG, AR, MDA, SOD in diabetic GK rats", "setting": "diabetic GK rats; [5]", "result": "improves"}, {"measurement": "GLU", "setting": "diabetic GK rats; 10 mg/kg", "result": "20.75 ± 3.39", "unit": "mmol/L"}, {"measurement": "Lipid TC", "setting": "diabetic GK rats; 10 mg/kg", "result": "4.48 ± 1.53", "unit": "mmol/L"}, {"measurement": "Lipid TG", "setting": "diabetic GK rats; 10 mg/kg", "result": "3.62 ± 0.41", "unit": "mmol/L"}, {"measurement": "GLU", "setting": "diabetic GK rats; 30 mg/kg", "result": "13.05 ± 2.23", "unit": "mmol/L"}, {"measurement": "Lipid TC", "setting": "diabetic GK rats; 30 mg/kg", "result": "3.16 ± 0.32", "unit": "mmol/L"}, {"measurement": "Lipid TG", "setting": "diabetic GK rats; 30 mg/kg", "result": "2.82 ± 0.22", "unit": "mmol/L"}, {"measurement": "GLU", "setting": "diabetic GK rats; 200 mg/kg", "result": "9.05 ± 2.04", "unit": "mmol/L"}, {"measurement": "Lipid TC", "setting": "diabetic GK rats; 200 mg/kg", "result": "3.06 ± 0.29", "unit": "mmol/L"}, {"measurement": "Lipid TG", "setting": "diabetic GK rats; 200 mg/kg", "result": "1.82 ± 0.32", "unit": "mmol/L"}]}
{"smiles": "COc1ccc2cc3[n+](cc2c1OC)CCc1cc2c(cc1-3)OCO2", "note": "[Berberine]", "values": [{"measurement": "Measurements about oxidation SOD", "setting": "[1]; 10 mg/kg", "result": "131.56 ± 23.49", "unit": "U/mg pro"}, {"measurement": "Measurements about oxidation SOD", "setting": "[1]; 20 mg/kg", "result": "170.04 ± 13.49", "unit": "U/mg pro"}, {"measurement": "Measurements about oxidation SOD", "setting": "[1]; 150 mg/kg", "result": "195.10 ± 13.71", "unit": "U/mg pro"}, {"measurement": "Improvement of GLU, TC, TG, AR, MDA, SOD in diabetic GK rats", "setting": "diabetic GK rats; 10 mg/kg", "result": "do not significantly improve"}, {"measurement": "Improvement of GLU, TC, TG, AR, MDA, SOD in diabetic GK rats", "setting": "diabetic GK rats; [5]", "result": "improves"}, {"measurement": "GLU", "setting": "diabetic GK rats; 10 mg/kg", "result": "21.24 ± 3.13", "unit": "mmol/L"}, {"measurement": "Lipid TC", "setting": "diabetic GK rats; 10 mg/kg", "result": "4.53 ± 1.28", "unit": "mmol/L"}, {"measurement": "Lipid TG", "setting": "diabetic GK rats; 10 mg/kg", "result": "3.49 ± 0.68", "unit": "mmol/L"}, {"measurement": "GLU", "setting": "diabetic GK rats; 20 mg/kg", "result": "12.29 ± 2.76", "unit": "mmol/L"}, {"measurement": "Lipid TC", "setting": "diabetic GK rats; 20 mg/kg", "result": "3.27 ± 0.24", "unit": "mmol/L"}, {"measurement": "Lipid TG", "setting": "diabetic GK rats; 20 mg/kg", "result": "2.79 ± 0.24", "unit": "mmol/L"}, {"measurement": "GLU", "setting": "diabetic GK rats; 150 mg/kg", "result": "9.11 ± 2.08", "unit": "mmol/L"}, {"measurement": "Lipid TC", "setting": "diabetic GK rats; 150 mg/kg", "result": "3.01 ± 0.28", "unit": "mmol/L"}, {"measurement": "Lipid TG", "setting": "diabetic GK rats; 150 mg/kg", "result": "1.80 ± 0.19", "unit": "mmol/L"}, {"measurement": "Adverse reactions", "setting": "[3]", "result": "we don't find any adverse reactions"}, {"measurement": "Bioavailability", "setting": "[4]", "result": "very low"}]}
